The nature of this series: Nasal absorption of TSDG in rats: plasma levels after intranasal and intravenous administration, HPLC. Type of series: in vivo. Conditions: male, Sprague-Dawley, rat. As for the experimental part: Male Sprague-Dawley rats weighing 250-275 gm were used. Animals were fasted overnight before the experiment, but water was given ad libitum. All surgical procedures were performed under sodium pentobarbital anesthesia (40 mg/kg i.p.). An incision was made in the neck, and the trachea was cannulated with a polyethylene tube. A closed tube was inserted through the esophagus to the posterior part of the nasal cavity. The nasopalatine passage was closed with an adhesive agent to prevent drainage of the drug from the nasal cavity to the mouth.
Blood samples were collected from a cannula inserted into the femoral artery. For intravenous administration, the jugular vein was cannulated for administering the dose.
For intravenous administration, the same dose of the drug was injected through the jugular vein.
Blood samples were collected at 0, 5, 10, 20, 30, 40, 60, 90, 120, 150, and 180 minutes. After immediate centrifugation (3000×g for 3 min), the plasma was separated. The animal was sacrificed after the last sample was obtained, and the samples were then analyzed by HPLC, using the method of Hsyu et al. (Pharm. Res. 11:156-159, 1994). Briefly, plasma concentrations of testosterone free base were determined via a HPLC protocol which included solid-phase extraction, separation on a reverse-phase cyano column, and UV detection at 305 nm.

Usually AUC stands for concentration integrated over time. `C[C@]12CC[C@H]3[C@@H](CCC4=CC(=O)CC[C@@]43C)[C@@H]1CC[C@@H]2O` [TS, 17β-hydroxyandrost-4-en-3-one]: the AUC was 1830 ng·h/mL (inhaled or intranasal, intranasal, dose 25 mg/kg); 3490 ng·h/mL (inhaled or intranasal, intranasal, dose 50 mg/kg); 1770 ng·h/mL (intravenous, dose 25 mg/kg); 3780 ng·h/mL (intravenous, dose 50 mg/kg).
